Here are results for 86 compounds from a melting point compilation (Tetko et al.; mined from patent text by program, amines drawn as free bases though some values may be those of a salt).

As a reminder, the melting point is the temperature of the solid-liquid transition.

As to `COc1ccccc1C1(Cl)C(=O)Nc2cc(C(F)(F)F)c(Cl)cc21` (stereo unspecified), the melting point fell in the range of 230 to 231 °C.
The compound `Cc1c(NC(=O)c2cc3c(s2)C(=O)CCC3)cccc1-c1cn(C)c(=O)c(Nc2ccc(C3C(=O)N(C)CCN3C)cc2)n1` (stereo unspecified) gave a melting point of 154 to 155 °C.
The value for `COc1cc2c(cc1OC)CN(C(c1ccccc1)c1ccccc1)C2` was 126 to 128 °C; that for `CN1CCN(C2=Nc3ccccc3-n3ccc4cc(Br)cc2c43)CC1` was 157 to 159 °C; that for `O=CN1CCc2cc(OCC3CO3)ccc2C1` (stereo unspecified) was 78 to 79 °C.
The compound `O=C1c2cc(Br)ccc2CCC1Cc1cccnc1` (stereo unspecified) displayed a melting point of 63 to 67 °C.
As for `CCCCC#CC(C)(O)c1ccc(-c2ccc(F)cc2)cc1` (stereo unspecified), the melting point is 62 °C.
The compound `CCOCc1nc2c(N)nc(C)c(C)c2n1CCCNC(=O)N1CCOCC1` registered a melting point of 140 to 142 °C.
As to `Cc1c(NC(=O)CC(C)(C)C)cc2c(c1C)OCC2c1ccc(C(C)C)cc1` (stereo unspecified), the melting point lay within 177 to 178 °C.
In turn, `Fc1ccc(Oc2ncc3c(-c4ccccc4Cl)n[nH]c3n2)c(F)c1` gave a melting point of 173 to 176 °C.
As for `NC(=O)c1ccn2c1CSC2c1cccnc1` (single isomer, unassigned; (+)), the melting point turned out to be 210 °C.
The value for `CCOC(=O)c1cc(=O)c2ccc(OS(=O)(=O)c3ccc(C)cc3)c([N+](=O)[O-])c2o1` was 125 °C; that for `CCCCc1nc2c(N)nc3cc(-c4cccnc4)ccc3c2n1CCNC(=O)NC(C)C` was 240 to 241 °C; that for `O=C(O)CCCc1cc(C(c2cc(F)ccc2F)S(=O)(=O)c2ccc(Cl)cc2)c(Cl)cn1` (stereo unspecified) was 147 to 148 °C.
`Nc1cc(Nc2ccccc2)nc2c1ncn2C1OC(CO)C(O)C1O` (stereo unspecified) had a melting point of 192 to 195 °C.
On to `Cn1c(COc2ccc(C(C)(CCC(=O)O)c3ccc(OCc4nc5ccccc5n4C)cc3)cc2)nc2ccccc21`, for which the melting point fell in the range of 110 to 112 °C.
Consider `Cc1cnc(N2N=C(c3ccc([N+](=O)[O-])cc3)c3cc4c(cc3CC2C)OCO4)s1` (stereo unspecified), for which the melting point was 193 to 195 °C.
In the case of `COc1ccc(-c2cc(C(=O)NCc3ccccc3)c(=O)n(CC3CCCC3)n2)cc1`, the melting point came out at 108 °C.
For `N#CC(=Cc1cc(F)ccc1[N+](=O)[O-])C(N)=O`, the melting point lay in the range of 162 to 166 °C.
The value for `N#Cc1nn(-c2c(Cl)cc(C(F)(F)F)cc2Cl)cc1C1(Cl)CC1C(F)F` (stereo unspecified) was 124 to 125 °C.
Turning to `CC(=O)NC(=O)c1cncc([N+](=O)[O-])c1`, the melting point is 162 to 163 °C.
Regarding `CC(C)(C)c1cc(SCN2CCN(CSc3cc(C(C)(C)C)c(O)c(C(C)(C)C)c3)C2=O)cc(C(C)(C)C)c1O`, the melting point is 173 to 176 °C.
Compound `O=C(NCc1ccccc1)c1cc2ccnc(Cl)c2[nH]1` yielded a melting point of 217 to 220 °C.
On to `CCNc1nc(-c2ccccc2)ncc1[N+](=O)[O-]`, for which the melting point fell in the range of 136 to 137 °C.
`CC(C)n1nc(-c2cc(-c3ncnn3C)c(N)nc2-c2ccccc2)ccc1=O` came in with a melting point of 253 to 254 °C.
The compound `CCCCc1nc2cccc(C(=O)OC)c2n1Cc1ccc(-c2cncnc2-c2nnn[nH]2)cc1` came in with a melting point of 215 to 220 °C.
Regarding `CC(C(=O)O)c1ccc(-c2ccc(F)cc2Br)cc1` (stereo unspecified), the melting point is 77 to 79 °C.
Regarding `CC(=O)Oc1ccc2c(c1)C(=O)N(C(C)=O)C(C(Cl)(Cl)Cl)O2` (stereo unspecified), the melting point fell in the range of 138 to 140 °C.
Compound `CCOC(=O)c1ccc(N2C(=O)CCC2CO)c([N+](=O)[O-])c1` (stereo unspecified) gave a melting point of 90 to 95 °C.
The compound `CC(=O)OCc1ccc(-c2[nH]c(-c3cccc4ccccc34)nc2C(=O)Nc2nccs2)cc1` gave a melting point of 197 to 199 °C.
`COc1c(C2CCN(CCCCNC(=O)c3ccc(-c4ccc(C#N)cc4)cn3)CC2)ccc2c1CCCC2`: the melting point came out at 140 °C.
Consider `O=C(NCCc1ccc(Cl)cc1)C1Cc2ccccc2N1S(=O)(=O)c1ccc(-c2ccc(F)cc2)cc1` (stereo unspecified), for which the melting point came out at 126 °C.
Take `CC(=O)OC1C(N2CCCC2=O)c2sccc2OC1(C)C` (stereo unspecified): the melting point was in the range of 92 to 93 °C.
With `Cc1ccc(C#Cc2ccc3c(c2)C(C)(C)CCC3(C)C)cc1`, the melting point stood at 99 °C.
Take `O=C(O)c1nc2cc(-n3cccc3)c([N+](=O)[O-])cc2[nH]c1=O`: the melting point is over 300 °C.
Turning to `CC(=O)c1cc(C#N)c(=O)[nH]c1-c1ccccc1`, the melting point fell in the range of 259 to 261 °C.
`COc1ccc(-c2cc(-c3ccc(-c4c(Cc5ccccc5)sc5ccccc45)cc3)ccc2OCC(=O)O)cc1OC` showed a melting point of 95 to 97 °C.
`CC1Cc2c(N3C(=O)c4ccccc4C3=O)ccc(Cl)c2O1` (stereo unspecified) showed a melting point of 197 to 198 °C.
Compound `CC(Oc1ccc2c(c1)c(-c1cc3cccnc3[nH]1)cn2C)C(=O)O` (stereo unspecified) registered a melting point of 177 to 178 °C.
Compound `CCN(C(=O)C(C)Cl)c1cn(-c2cccnc2)nc1Cl` (stereo unspecified) registered a melting point of 94 to 105 °C.
On to `CC1=C(/C=C/C(=O)N2CCN(C(N)=O)CC2)C(C)(C)CCC1`, for which the melting point stood at 144 °C.
In the case of `COc1ccc(CC([N+](=O)[O-])C2(CCCCc3ccc(C)cc3)OCCO2)cc1OC` (stereo unspecified), the melting point was 89 to 91 °C.
Take `CCOC(=O)Cn1c2c([nH]c(=O)c1=O)CCC1=C2C=C(N)CC1`: the melting point stood at 238 °C.
`CCCCNC(=O)OCC(=O)O`: the melting point lay in the range of 83 to 84 °C.
With `COc1cc(Nc2nc3cccc(-c4ccc(C(N)=O)cc4)c3o2)cc(OC)c1OC`, the melting point was over 280 °C.
The value for `CCCCCOc1ccc(-c2ccc(-c3nc(N)nc(N)n3)cc2)cc1` was 246 to 249 °C; that for `COc1ccc(CNS(=O)(=O)c2ccc(C(CC3CCCC3)C(=O)Nc3nc4ccc(OC)nc4s3)cc2)cc1` (stereo unspecified) was 170 to 172 °C; that for `CNc1ccc(CCc2ccc(OC)c(OC)c2)cc1` was 82 to 84 °C.
`OCC1OC(n2c(Cl)nc3ccc(Br)cc32)C(O)C1O` (stereo unspecified) displayed a melting point of 152 to 153 °C.
For `O=c1cc(-c2ccncc2)nc2[nH]c3ccccc3n12`, the melting point is 300 to 302 °C.
Consider `C=CCOc1cc(N2C(=O)C3=C(CCCC3)C2=O)ccc1Cl`, for which the melting point lay in the range of 118 to 120 °C.
Take `Clc1ccc(-c2n[nH]cc2Cl)cc1`: the melting point came to 158 °C.
With `CC(c1c[nH]cn1)c1cccc(C#N)c1O` (stereo unspecified), the melting point worked out at 172 °C.
On to `Cc1nc2ccccc2c(=O)o1`, for which the melting point was 79 to 81 °C.
In turn, `CCc1ccc(Cc2cc(Br)cc(Br)c2O)cc1` yielded a melting point of 90 to 91.5 °C.
In the case of `O=C1c2ccccc2C(=O)N1CCC=Cc1csc(-c2ccccn2)n1`, the melting point was in the range of 139 to 141 °C.
In turn, `CCCNC(=S)N1CCc2cc(S(=O)(=O)N3CC(c4ccccc4)NC3=O)ccc21` (stereo unspecified) had a melting point of 222 to 224 °C.
In turn, `CCCCc1nc(SC)c(C(=O)OCC)n1Cc1ccc(-c2nc3ccccn3c2C#N)cc1` registered a melting point of 168 °C.
Consider `O=S1(=O)NCNc2ccc(F)cc21`, for which the melting point was in the range of 159 to 165 °C.
`Clc1ccc(OC2CN(C(c3ccccc3)c3ccccc3)C2)cc1Cl` gave a melting point of 114 to 115 °C.
Take `CC1=C(C(=O)OCc2ccccc2)C(c2cccc([N+](=O)[O-])c2)c2c(ccnc2OC(C)C)N1` (stereo unspecified): the melting point is 158 to 160 °C.
Take `CC(C)c1cccc(C(C)C)c1N1C(=O)c2cccc3c(Oc4ccc(C(C)(C)CC(C)(C)C)cc4)ccc(c23)C1=O`: the melting point turned out to be 217 °C.
Consider `O=C(CCCCl)Nc1cn(-c2cccnc2)nc1Cl`, for which the melting point lay in the range of 97 to 98 °C.
Compound `CCCCCCCCCCCc1cc(O)c(CCCCCC)c(=O)o1` returned a melting point of 83 to 84 °C.
Regarding `Cc1cc(C2=NOC(c3cc(Cl)cc(Cl)c3)(C(F)(F)F)C2)ccc1C(=O)NCc1ccccn1` (stereo unspecified), the melting point is 131 to 136 °C.
`O=c1cc2c(nn1-c1ccc(Cl)cc1)-c1cc(Br)sc1S(=O)CC2` (stereo unspecified) gave a melting point of 184 to 185 °C.
`Cc1cccc(-c2nc(Cl)cc(-c3ccccc3Cl)n2)n1` showed a melting point of 133 °C.
`CCOC(=O)c1c(Nc2ccc(Cl)cc2)n[nH]c1C` came in with a melting point of 223 to 225 °C.
Compound `O=C(O)c1ccc(-c2ccc(I)cc2)cc1` returned a melting point of 303 to 305 °C.
Compound `Cc1nc(N)c2nc(CONC(C)C)n(CCCCNC(=O)c3ccccc3)c2c1C` came in with a melting point of 161 to 162 °C.
`COc1ccc(C[C@@H](NC(=O)C2CCCCC2)[C@@H](O)c2ccc(F)cc2)cc1` (racemic) gave a melting point of 193 to 194 °C.
The compound `CC(C)C(=O)Nc1csc(Br)n1` gave a melting point of 95 °C.
With `NC(=O)C1CCC(OCCCN2CCN(c3cccc4sccc34)CC2)CC1` (stereo unspecified), the melting point was determined as 108 °C.
As to `O=C1N[C@H](Cc2ccc(C(F)(F)F)cc2)[C@@H](c2ccc(F)cc2)O1` (racemic), the melting point was in the range of 83 to 84 °C.
The value for `N#CC(=C1C=CC(=NOC(=O)C(Cl)(Cl)Cl)C=C1)c1ccccc1` was 147 to 148 °C; that for `COCc1cc2ccccc2c(Oc2ccc(/C=C/C(=O)O)cc2)c1-c1ccccc1` was 76 to 79 °C.
`CN(C)c1ccc(C2OC(C)(C)N=C2c2ccccc2Cl)cc1` (stereo unspecified) yielded a melting point of 72.5 to 73.5 °C.
Take `NC(=O)Nc1ccc2c(c1)C(CN1CCC(c3ccc(F)cc3)CC1)CC2` (stereo unspecified): the melting point fell in the range of 172 to 174 °C.
Consider `COc1ccc(N2C(=O)C3=C(SCCS3)C2OC(=O)N2CCN(C)CC2)nn1` (stereo unspecified), for which the melting point was 196 to 198 °C.
In turn, `CCOCCOC(=O)C(=O)Nc1nc(-c2cc3ccccc3oc2=O)cs1` returned a melting point of 156 to 157 °C.
On to `Cc1cc2c(cc1C(O)c1c(C(F)(F)F)ccnc1Cl)OCO2` (stereo unspecified), for which the melting point was 127 to 130 °C.
The value for `NC(=O)NCCN1CCC(O[N+](=O)[O-])CC1` was 114 to 116 °C; that for `CN(C)CC=CC(=O)Nc1ccc2ncc(C#N)c(Nc3cccc(Br)c3)c2c1` was 209 to 211 °C; that for `CCOc1ccc2c(c1)n(C13CC4CC(CC(C4)C1)C3)c(=O)n2S(=O)(=O)c1ccc(NC(=O)N(CC)CC)cc1OC` was 221 °C.
In turn, `Cc1ccc2c(c1)nc(/C=C/c1ccccc1)n2-c1ccccn1` registered a melting point of 145 to 146 °C.
The value for `Cn1nnnc1C(F)(F)C(O)(Cn1cncn1)c1ccc(F)cc1F` (stereo unspecified) was 160 to 165 °C.
